# Results taken from patent publication US4835168A, “Thiadiazole antiviral agents” (Eli Lilly and Company, priority 1988, dated 1989).
# Entries after “also recorded” stand apart in the source; their conditions may differ. Counter-ions that a name gives are not always drawn. Like-named read-outs stand apart in the source and are kept apart here.
# Assays:
# [1] = Malinoski et al., Virology 1981; cited from earlier work
# influenza B-Great Lake [2] = test: plaque-reduction study in MDCK cells (Table III); type: cell-based; conditions: for IC50: MDCK, read-out: IC50, inhibition of plaque formation by 50 percent
# influenza Al-Ann Arbor [3] = test: plaque-reduction study in MDCK cells (Table III); type: cell-based; conditions: for IC50: MDCK, read-out: IC50, inhibition of plaque formation by 50 percent
# Parainfluenza (type 3) = test: plaque-reduction test (Table V); type: cell-based; conditions: read-out: IC50, inhibition of plaque formation by 50 percent
# HSV I = test: in vivo antiviral test in mouse (Table IV); conditions: drinking water, more survivors than control
# Experimental: (§1) As previously mentioned, in vivo antiviral test results may vary due to numerous factors. […] The compounds of Examples 1 and 7 were tested against several different viruses using different kinds of test animals and different modes of oral and topical administration. In Table IV below, Column 1 indicated the test compound, while Column 2 discloses the virus the compound was employed against. Columns 3 and 4 describe the test animal and the method of administration, respectively. Finally, Column 5 discloses whether or not antiviral activity was shown.
# [4] = test system: influenza A1-Ann Arbor strain; test: in vivo mouse influenza test, survival index, relative activity (Table I); conditions: CD-1 mice, 10 days
# Semliki Forest = test: plaque-reduction test (Table V); type: cell-based; conditions: BSCl cells, read-out: IC50, inhibition of plaque formation by 50 percent
# RSV = test: in vivo antiviral test in hamster (Table IV); conditions: reduction in nasal washing virus titer vs control
# Experimental: as §1
# Vaccinia = test: microbe, parasite or virus in culture; type: cell-based; conditions: Orthopoxvirus vaccinia, read-out: IC50, inhibition of plaque formation by 50 percent
# Herpes I = test: plaque-reduction test (Table V); type: cell-based; conditions: BSCl cells, read-out: IC50, inhibition of plaque formation by 50 percent
# [5] = in vivo conversion to salt form of the compound of Example 6
# influenza A-NWS = test: plaque-reduction study in MDCK cells (Table III); type: cell-based; conditions: values marked *: one discordant test >50 not incorporated; for IC50: MDCK, read-out: IC50, inhibition of plaque formation by 50 percent
# Friend Leukemia = test: preliminary testing against retroviruses
# HIV = test: preliminary testing against retroviruses
# Herpes II = test: plaque-reduction test (Table V); type: cell-based; conditions: BSCl cells, read-out: IC50, inhibition of plaque formation by 50 percent
# [6] = test system: Vesicular Stomatitus Virus; test: in vitro activity against Vesicular Stomatitus Virus; type: cell-based
# HSV II = test: in vivo antiviral test in guinea pig (Table IV); conditions: topical cream, fewer lesions than control
# Experimental: as §1
# influenza A-Brazil = test: survival of infected mice, oral in diet (Table II); type: in vivo; conditions: control 10/28
# Text: (§2) Again, due to the nature of in vivo antiviral tests the in vivo antiviral influenza activity of the compounds can vary. […] A typical test would run for at least ten days.
# influenza B-Taiwan = test: survival of infected mice, oral in diet (Table II); type: in vivo; conditions: control 1/36
# Text: as §2
# influenza B-Great Lake [7] = test: survival of infected mice, oral in diet (Table II); type: in vivo; conditions: control 3/36
# Text: as §2
# influenza B-Maryland = test: survival of infected mice, oral in diet (Table II); type: in vivo; conditions: control 14/50
# Text: as §2
# influenza A-Texas = test: survival of infected mice, oral in diet (Table II); type: in vivo; conditions: control 8/36
# Text: as §2
# influenza Al-Ann Arbor [8] = test: survival of infected mice, oral in diet (Table II); type: in vivo; conditions: control 0/50
# Text: as §2
# influenza B-Hong Kong = test: survival of infected mice, oral in diet (Table II); type: in vivo; conditions: control 4/50
# Text: as §2
smiles,measurement,setting,value
"Nc1nncs1 [2-amino-1,3,4-thiadiazole]",antiviral activity,[1],certain antiviral activity
"CSC(N)=Nc1nncs1 [Example 1, N^1-1,3,4-thiadiazol-2-ylcarbamimidothioic acid, methyl ester]",IC50,influenza B-Great Lake [2],16.3 µg/mL
same,IC50,influenza Al-Ann Arbor [3],0.68 µg/mL
same,IC50,Parainfluenza (type 3); BSCl cells,4.5 µg/mL
same,IC50,Parainfluenza (type 3); HELA cells,> 25 µg/mL
same,antiviral activity shown (Result),HSV I,active
same,"RA (relative activity index from P, percent of maximum survival index)",[4],5 (80-100% = 5 (very active))
same,IC50,Semliki Forest,43 µg/mL
same,antiviral activity shown (Result),RSV; drinking water,active
same,IC50,Vaccinia,15.8 µg/mL
same,IC50,Herpes I,9.6 µg/mL
same,conversion in vivo to a salt form of the compound of Example 6,[5],converted to a salt form of the compound of Example 6; also recorded: converted in vivo to a salt form
"CCSC(N)=Nc1nncs1 [Example 2, N^1-1,3,4-thiadiazol-2-ylcarbamimidothioic acid, ethyl ester]",IC50,influenza B-Great Lake [2],9.5 µg/mL
same,IC50,influenza A-NWS,18.9 µg/mL
same,"RA (relative activity index from P, percent of maximum survival index)",[4],5 (80-100% = 5 (very active))
"CCCCSC(N)=Nc1nncs1 [Example 3, N^1-1,3,4-thiadiazol-2-ylcarbamimidothioic acid, n-butyl ester]",IC50,influenza B-Great Lake [2],> 50 µg/mL
same,IC50,influenza A-NWS,21.3 µg/mL
same,"RA (relative activity index from P, percent of maximum survival index)",[4],5 (80-100% = 5 (very active))
"NC(=Nc1nncs1)SCc1ccccn1 [Example 4, N^1-1,3,4-thiadiazol-2-ylcarbamimidothioic acid, 2-pyridinylmethyl ester, hydrochloride]",IC50,influenza B-Great Lake [2],> 50 µg/mL
same,IC50,influenza A-NWS,> 50 µg/mL
same,"RA (relative activity index from P, percent of maximum survival index)",[4],2.5
"N#CCSC(N)=Nc1nncs1 [Example 5, N^1-1,3,4-thiadiazol-2-ylcarbamimidothioic acid, cyanomethyl ester]","RA (relative activity index from P, percent of maximum survival index)",[4],2.5
"N#CNc1nncs1 [Example 6, 1,3,4-Thiadiazole-2-cyanamide]","IC50, inhibition of plaque formation by 50 percent",influenza B-Great Lake [2],2.25 MCG/ML
same,IC50,influenza Al-Ann Arbor [3],0.85 µg/mL
same,IC50,influenza A-NWS,0.78 µg/mL
"N#CNc1nncs1 [Example 7, 1,3,4-Thiadiazole-2-cyanamide Sodium salt]","IC50, inhibition of plaque formation by 50 percent",influenza B-Great Lake [2]; Sodium salt,1.00 MCG/ML
same,activity against retroviruses,Friend Leukemia,failed to demonstrate conclusive activity
same,"IC50, inhibition of plaque formation by 50 percent",influenza Al-Ann Arbor [3]; Sodium salt,0.82 MCG/ML
same,activity against retroviruses,HIV,failed to demonstrate conclusive activity
same,IC50,Herpes II,0.19 µg/mL
same,"IC50, inhibition of plaque formation by 50 percent",influenza A-NWS; Sodium salt,0.58 MCG/ML
same,in vitro activity against Vesicular Stomatitus Virus,[6],does not
same,IC50,Parainfluenza (type 3); BSCl cells,0.14 µg/mL
same,IC50,Parainfluenza (type 3); HELA cells,0.72 µg/mL
same,antiviral activity shown (Result),HSV I,active
same,IC50,Semliki Forest,< 0.23 µg/mL
same,antiviral activity shown (Result),RSV; food,active
same,antiviral activity shown (Result),HSV II,active
same,IC50,Vaccinia; Vero,0.29 µg/mL
same,IC50,Vaccinia,< 0.31 µg/mL
same,IC50,Herpes I,2.95 µg/mL
"NC(N)=Nc1nncs1 [Example 8, 1,3,4-Thiadiazole-2-guanidine]",IC50,influenza B-Great Lake [2],0.27 µg/mL
same,IC50,influenza Al-Ann Arbor [3],0.02 µg/mL
"CCOC(=O)NC(=S)Nc1nncs1 [Preparation 1, [(1,3,4-Thiadiazol-2-ylamino)thioxomethyl]carbamic acid, ethyl ester]",IC50,influenza B-Great Lake [2],> 50 µg/mL
same,IC50,influenza A-NWS,43 µg/mL
same,"RA (relative activity index from P, percent of maximum survival index)",[4],4.5
"NC(=S)Nc1nncs1 [Preparation 2, 1,3,4-Thiadiazol-2-ylthiourea]",IC50,influenza B-Great Lake [2],7 µg/mL
same,IC50,influenza Al-Ann Arbor [3],> 50 µg/mL
same,IC50,influenza A-NWS,3.6 µg/mL
same,in vitro activity against Vesicular Stomatitus Virus,[6],displays in vitro activity
same,number of animals surviving over number tested (S/N),influenza A-Brazil; 15 mg/kg/day,5/15
same,number of animals surviving over number tested (S/N),influenza A-Brazil; 30 mg/kg/day,5/16
same,number of animals surviving over number tested (S/N),influenza A-Brazil; 60 mg/kg/day,12/18
same,number of animals surviving over number tested (S/N),influenza A-Brazil; 120 mg/kg/day,14/18
same,number of animals surviving over number tested (S/N),influenza B-Taiwan; 15 mg/kg/day,4/18
same,number of animals surviving over number tested (S/N),influenza B-Taiwan; 30 mg/kg/day,15/18
same,number of animals surviving over number tested (S/N),influenza B-Taiwan; 60 mg/kg/day,18/18
same,number of animals surviving over number tested (S/N),influenza B-Taiwan; 120 mg/kg/day,18/18
same,number of animals surviving over number tested (S/N),influenza B-Great Lake [7]; 15 mg/kg/day,11/18
same,number of animals surviving over number tested (S/N),influenza B-Great Lake [7]; 30 mg/kg/day,16/18
same,number of animals surviving over number tested (S/N),influenza B-Great Lake [7]; 60 mg/kg/day,17/18
same,number of animals surviving over number tested (S/N),influenza B-Great Lake [7]; 120 mg/kg/day,18/18
same,number of animals surviving over number tested (S/N),influenza B-Maryland; 60 mg/kg/day,19/20
same,number of animals surviving over number tested (S/N),influenza B-Maryland; 120 mg/kg/day,20/20
same,number of animals surviving over number tested (S/N),influenza A-Texas; 15 mg/kg/day,5/18
same,number of animals surviving over number tested (S/N),influenza A-Texas; 30 mg/kg/day,8/18
same,number of animals surviving over number tested (S/N),influenza A-Texas; 60 mg/kg/day,12/18
same,number of animals surviving over number tested (S/N),influenza A-Texas; 120 mg/kg/day,16/18
same,number of animals surviving over number tested (S/N),influenza Al-Ann Arbor [8]; 60 mg/kg/day,20/20
same,number of animals surviving over number tested (S/N),influenza Al-Ann Arbor [8]; 120 mg/kg/day,20/20
same,number of animals surviving over number tested (S/N),influenza B-Hong Kong; 60 mg/kg/day,10/20
same,number of animals surviving over number tested (S/N),influenza B-Hong Kong; 120 mg/kg/day,16/20
"O=C(NC(=S)Nc1nncs1)Oc1ccccc1 [Preparation 3, [(1,3,4-Thiadiazol-2-ylamino)thioxomethyl]carbamic acid, phenyl ester]",IC50,influenza A-NWS,< 1.6 µg/mL
same,"RA (relative activity index from P, percent of maximum survival index)",[4],5 (80-100% = 5 (very active))
"CCCCCCOC(=O)NC(=S)Nc1nncs1 [Preparation 4, [(1,3,4-Thiadiazol-2-ylamino)thioxomethyl]carbamic acid, n-hexyl ester]","RA (relative activity index from P, percent of maximum survival index)",[4],5 (80-100% = 5 (very active))
"COC(=O)NC(=S)Nc1nncs1 [Preparation 5, [(1,3,4-thiadiazol-2-ylamino)thioxomethyl]carbamic acid, methyl ester]","RA (relative activity index from P, percent of maximum survival index)",[4],5 (80-100% = 5 (very active))
"C=COC(=O)NC(=S)Nc1nncs1 [Preparation 6, [(1,3,4-thiadiazol-2-ylamino)thioxomethyl]carbamic acid, vinyl ester]","RA (relative activity index from P, percent of maximum survival index)",[4],4 (60-80% = 4 (good activity))
"CCOC(=O)N=C(Nc1nncs1)SC [Preparation 7, [(Methylthio)(1,3,4-thiadiazol-2-ylamino)methyl]carbamic acid, ethyl ester]",IC50,influenza A-NWS,75.5 µg/mL
same,"RA (relative activity index from P, percent of maximum survival index)",[4],5 (80-100% = 5 (very active))
CCOC(=O)N=C(Nc1nncs1)SCC [Preparation 8],IC50,influenza A-NWS,> 50 µg/mL
same,"RA (relative activity index from P, percent of maximum survival index)",[4],5 (80-100% = 5 (very active))
